pEC50: −log10 of the molar value. Activity calls are given as the source filed them. The rule behind the calls is not given here.
Experiments:
[1] = tested on: Leishmania donovani; assay: Antileishmanial activity against Leishmania donovani MHOM/ET/67/HU3 intracellular amastigotes infected in human THP1 cells after 96 hrs by prolong-gold antifade-reagent/DAPI staining based assay; assay type: functional, organism-based; conditions: MHOM/ET/67/HU3, THP-1, 96 h
[2] = Selectivity index, ratio of EC50 for cytotoxicity against human THP1 cells to EC50 for antileishmanial activity against Leishmania donovani MHOM/ET/67/HU3 amastigotes infected in human THP1 cells; assay type: toxicity, cell-based; conditions: read-out: Ratio EC50
[3] = Drug concentration in BALB/c mouse liver infected with Leishmania infantum LEM 3049 isolate promastigotes at 1.5 mg/kg, po administered for 4 days and measured 2 days post last dose by HPLC analysis; conditions: in vivo, 48 h, BLD = below limit of detection
[4] = tested on: Leishmania donovani; assay: Antileishmanial activity against Leishmania donovani MHOM/ET/67/HU3 promastigote after 72 hrs by MTT assay; assay type: functional, organism-based; conditions: MHOM/ET/67/HU3, 72 h
[5] = Tmax in BALB/c mouse at 20 mg/kg, po measured for up to 72 hrs by HPLC analysis; assay type: ADME, organism-based; conditions: in vivo
[6] = Half life in human liver microsomes at 5 to 10 uM measured for 120 mins in presence of NADPH by RP-HPLC analysis; assay type: ADME, Microsome
[7] = Primary phase half life in BALB/c mouse at 20 mg/kg, po measured for < 6 hrs by HPLC analysis; assay type: ADME, organism-based; conditions: in vivo, read-out: alphat1/2 (converted)
[8] = Half life in CD-1 mouse liver microsomes at 5 to 10 uM measured for 120 mins in presence of NADPH by RP-HPLC analysis; assay type: ADME, Microsome
[9] = Metabolic stability in human liver S9 fraction at 5 to 10 uM measured for 120 mins in presence of NADPH by RP-HPLC analysis; assay type: ADME, subcellular; conditions: s9, 2 h
[10] = tested on: Leishmania infantum; assay: Antileishmanial activity against Sb 3 resistant Leishmania infantum LEM 3329 isolate promastigote after 72 hrs by MTT assay; assay type: functional, organism-based
[11] = Plasma concentration in BALB/c mouse infected with Leishmania infantum LEM 3049 isolate promastigotes at 1.5 mg/kg, po administered for 4 days and measured 2 days post last dose by HPLC analysis; conditions: in vivo, 48 h, BLD = below limit of detection
[12] = Drug concentration in BALB/c mouse spleen infected with Leishmania infantum LEM 3049 isolate promastigotes at 1.5 mg/kg, po administered for 4 days and measured 2 days post last dose by HPLC analysis; conditions: in vivo, 48 h, BLD = below limit of detection
[13] = tested on: Leishmania infantum; assay: Antileishmanial activity against Leishmania infantum LEM 3049 isolate promastigotes infected in BALB/c mouse assessed as reduction in parasite burden in spleen at 1.5 mg/kg, po administered for 4 days and measured 2 days post last dose by light microscopic method relative to control; parameters: scale not given: the % may be the effect or the level left
[14] = tested on: Leishmania infantum; assay: Induction of plasma membrane depolarization in Leishmania infantum LEM 3049 isolate promastigotes incubated for 2 hrs by DiBAC4(3) probe based flow cytometric analysis; assay type: functional, organism-based
[15] = Plasma concentration in BALB/c mouse infected with Leishmania infantum LEM 3049 isolate promastigote at 1.5 mg/kg, po for 4 days by HPLC analysis
[16] = tested on: Leishmania infantum; assay: Antileishmanial activity against Leishmania infantum LEM 3049 isolate promastigote after 72 hrs by MTT assay; assay type: functional, organism-based
[17] = tested on: Leishmania infantum; assay: Induction of apoptosis in Leishmania infantum LEM 3049 isolate promastigotes assessed as DNA fragmentation at 0.02 to 5 uM after 4 hrs by TUNEL assay; assay type: functional, organism-based
[18] = tested on: Leishmania infantum; assay: Antileishmanial activity against Leishmania infantum LEM 3049 isolate promastigotes assessed as decrease in ATP level at 0.02 uM after 120 mins by CellTiter-Glo luminescence assay relative to control; assay type: functional; parameters: scale not given: the % may be the effect or the level left
[19] = tested on: Leishmania infantum; assay: Antileishmanial activity against Leishmania infantum LEM 3049 isolate promastigotes assessed as decrease in ATP level at 0.1 uM after 120 mins by CellTiter-Glo luminescence assay relative to control; assay type: functional; parameters: scale not given: the % may be the effect or the level left
[20] = tested on: Leishmania infantum; assay: Antileishmanial activity against MIL/paromomycin resistant Leishmania infantum LEM 2126 isolate promastigote after 72 hrs by MTT assay; assay type: functional, organism-based
[21] = tested on: Leishmania infantum; assay: Antileishmanial activity against MIL resistant Leishmania infantum LEM 5159 isolate promastigote after 72 hrs by MTT assay; assay type: functional, organism-based
[22] = tested on: Leishmania infantum; assay: Induction of plasma membrane permeabilization in Leishmania infantum LEM 3049 isolate promastigotes 0.02 to 1 uM incubated for 2 hrs by SYTOX Green based flow cytometric analysis; assay type: functional, organism-based
[23] = tested on: Leishmania infantum; assay: Induction of mitochondrial membrane potential loss in Leishmania infantum LEM 3049 isolate promastigotes at 1 uM after 24 hrs by JC-1 dye based flow cytometric analysis relative to control; assay type: functional
[24] = tested on: Leishmania infantum; assay: Antileishmanial activity against Sb 3 resistant Leishmania infantum LEM 3329 isolate intracellular amastigotes infected in human THP1 cells after 96 hrs by prolong-gold antifade-reagent/DAPI staining based assay; assay type: functional, organism-based; conditions: THP-1, 96 h
[25] = Thermodynamic solubility of the compound in 5% gamma-cyclodextrin in water (w/w) colloidal suspension; assay type: physicochemical; conditions: read-out: Therm_solubility
[26] = Apparent terminal half life in BALB/c mouse at 20 mg/kg, po measured for 6 to 72 hrs by HPLC analysis; assay type: ADME, organism-based; conditions: in vivo, read-out: betat1/2(app) (converted)
[27] = tested on: Leishmania infantum; assay: Antileishmanial activity against Leishmania infantum LEM 3049 isolate intracellular amastigotes infected in human THP1 cells after 96 hrs by prolong-gold antifade-reagent/DAPI staining based assay; assay type: functional, organism-based; conditions: THP-1, 96 h, read-out: EC50
[28] = Half life in human liver microsomes at 10 to 20 uM measured for 120 mins in presence of UDPGA by RP-HPLC analysis; assay type: ADME, Microsome
[29] = Acute toxicity in BALB/c mouse at 20 mg/kg, po; assay type: organism-based; conditions: in vivo
[30] = tested on: Leishmania infantum; assay: Antileishmanial activity against Leishmania infantum LEM 3049 isolate promastigotes infected in BALB/c mouse assessed as reduction in parasite burden in liver at 1.5 mg/kg, po administered for 4 days and measured 2 days post last dose by light microscopic method relative to control; parameters: scale not given: the % may be the effect or the level left
[31] = tested on: Leishmania donovani; assay: Potency index, ratio of amphotericin B EC50 to test compound EC50 for antileishmanial activity against Leishmania […] amastigote infected in THP1 cells; assay type: functional
[32] = tested on: Leishmania infantum; assay: Antileishmanial activity against Leishmania infantum LEM 3049 isolate promastigotes assessed as decrease in ATP level at 0.02 to 1 uM after 30 mins by CellTiter-Glo luminescence assay relative to control; assay type: functional; parameters: scale not given: the % may be the effect or the level left
[33] = Solubility of the compound in water; assay type: physicochemical; conditions: buffer
[34] = tested on: THP-1; assay: Cytotoxicity against human THP1 cells assessed as reduction in cell viability after 72 hrs by MTT assay; assay type: cell-based; conditions: THP-1, 72 h
[35] = tested on: Leishmania infantum; assay: Antileishmanial activity against MIL/paromomycin resistant Leishmania infantum LEM 2126 isolate intracellular amastigotes infected in human THP1 cells after 96 hrs by prolong-gold antifade-reagent/DAPI staining based assay; assay type: functional, organism-based; conditions: THP-1, 96 h
[36] = tested on: Leishmania infantum; assay: Antileishmanial activity against MIL resistant Leishmania infantum LEM 5159 isolate intracellular amastigotes infected in human THP1 cells after 96 hrs by prolong-gold antifade-reagent/DAPI staining based assay; assay type: functional, organism-based; conditions: THP-1, 96 h
[37] = Metabolic stability in human liver S9 fraction at 10 to 20 uM measured for 120 mins in presence of UDPGA by RP-HPLC analysis; assay type: ADME, subcellular; conditions: s9, 2 h
[38] = Cmax in BALB/c mouse at 20 mg/kg, po measured for up to 72 hrs by HPLC analysis; assay type: ADME, organism-based; parameters: dose 20 mg/kg, route oral; conditions: in vivo
[39] = Half life in CD-1 mouse liver microsomes at 10 to 20 uM measured for 120 mins in presence of UDPGA by RP-HPLC analysis; assay type: ADME, Microsome
[40] = tested on: Leishmania infantum; assay: Induction of mitochondrial membrane potential loss in Leishmania infantum LEM 3049 isolate promastigotes at 0.02 uM after 30 mins by JC-1 dye based flow cytometric analysis relative to control; assay type: functional
[41] = tested on: Leishmania infantum; assay: Antileishmanial activity against Leishmania infantum LEM 3049 isolate promastigotes assessed as decrease in ATP level at 1 uM after 120 mins by CellTiter-Glo luminescence assay relative to control; assay type: functional; parameters: scale not given: the % may be the effect or the level left
[42] = tested on: Leishmania infantum; assay: Induction of ROS generation in Leishmania infantum LEM 3049 isolate promastigotes at 1 uM after 2 hrs by H2DCFDA staining based flow cytometric analysis relative to control; assay type: functional
[43] = in vitro; conditions: human, microsomes
Description: Half life in human liver microsomes at 20 to 40 uM measured for 120 mins in presence of NADPH by RP-HPLC analysis

[44] = Selectivity index, ratio of EC50 for cytotoxicity against human MRC5 cells to EC50 for antileishmanial activity against Leishmania donovani MHOM/ET/67/HU3 amastigotes infected in human THP1 cells; assay type: toxicity, cell-based; conditions: read-out: Ratio EC50

For `O=Cc1ccc(OCCCCCCCCCCCCCC[n+]2cccc3ccccc32)cc1O`, the pEC50 [1] was 6.10 and the selectivity ratio [2] was 3.7 to 5.

With `O=C(CCCCCCCCCCCCCCC[P+](c1ccccc1)(c1ccccc1)c1ccccc1)c1ccc(O)cc1O.[Br-]` the Drug uptake [3] was “Bld”, the pEC50 [4] was 7.15 and the Tmax [5] was 1 h. For the same molecule, the pEC50 [1] was 7.05, the half-life [6] was > 2 h and the half-life [7] was 1 h. The half-life [8] was < 0.5 h, the Stability [9] was “Stable” and the pEC50 [10] was 7.00. The Cp [11] was “Bld”, the Drug uptake [12] was “Bld” and the Activity [13] was 98.9%. The Activity [14] was “Dose-dependent effect”, the concentration at 96 h [15] was > 0.09 µM and the pEC50 [16] was 7.10. The Activity [17] was “inactive”, the Activity [18] was 91% and the Activity [19] was 89%. For the same molecule, the pEC50 [20] was 6.92, the pEC50 [21] was 6.96 and the Activity [22] was “inactive”. It also gave an Activity [23] of 97%, a pEC50 [24] of 6.82 and a solubility thermodynamic [25] of 0.52 mg/mL. For the same molecule, the half-life [26] was 23 h, the pEC50 [27] was 6.92 and the half-life at up to 20 µM [28] was > 2 h. For the same molecule, the selectivity ratio [2] was 31.2, the Activity [29] was “Toxic” and the Activity [30] was 95.3%. For the same molecule, the “Ratio EC50” value [31] was 2, the Activity [32] was 50 - 74% and the solubility [33] was “Insoluble”. It also gave a pEC50 [34] of 5.55, a pEC50 [35] of 6.85 and a pEC50 [36] of 6.85. The Stability [37] was “Stable”, the Cmax [38] was 182 µM and the half-life at up to 20 µM [39] was < 0.5 h. The Activity [40] was 86%, the Activity [41] was 87% and the “fold change (FC)” value [42] was 8.

For `O=C(O)Cc1ccccc1Nc1c(Cl)cccc1Cl` [DICLOFENAC], the half-life at 2 h, 40 µM [43] was < 0.5 h.

In the case of `O=C(O)c1ccc(OCCCCCCCCCCCCCC[P+](c2ccccc2)(c2ccccc2)c2ccccc2)cc1O`, the pEC50 [4] was > 6.70, the pEC50 [1] was > 6.70 and the selectivity ratio [44] was 2 to 27.

`Cc1cc(O)ccc1C(=O)OCCCCCCCCCCCCCC[P+](c1ccccc1)(c1ccccc1)c1ccccn1` showed a pEC50 [4] of 6.74, a pEC50 [1] of 6.92 and a selectivity ratio [2] of 19.6. The pEC50 [34] was 5.63.

With `CCOC(=O)c1c(C)cc(OCCCCCCCCCCCCCC[P+](c2ccccc2)(c2ccccc2)c2ccccc2)cc1O` the pEC50 [1] was > 6.00 and the selectivity ratio [44] was 2 to 27.

For `O=C(O)c1ccc(OCCCCCCCCCC[P+](c2ccccc2)(c2ccccc2)c2ccccc2)cc1O`, the pEC50 [4] was > 6.70, the pEC50 [1] was > 6.70 and the selectivity ratio [44] was 2 to 27.

For `COC(=O)c1ccc(OCCCCCCCCCC[P+](c2ccccc2)(c2ccccc2)c2ccccc2)cc1O`, the pEC50 [1] was > 6.00 and the selectivity ratio [2] was 2 to 27.

In the case of `O=C(OCCCCCCCCCCCCCC[n+]1cccc2ccccc21)c1ccc(O)cc1O`, the pEC50 [4] was > 6.70, the pEC50 [1] was 6.10 and the selectivity ratio [2] was 3.7 to 5.

For `O=C(OCCCCCCCCCCCC[P+](c1ccccc1)(c1ccccc1)c1ccccc1)c1ccc(O)cc1O`, the pEC50 [4] was > 6.00, the pEC50 [1] was > 6.00 and the selectivity ratio [2] was > 10.
